Data as given in US11571423B2, “Small molecule modulators of human sting” (Curadev Pharma Limited, priority 2017, dated 2023).
Like-named read-outs stand apart in the source and are kept apart here.

Tests used:
[1] = target: cynomolgus monkey STING protein (Macaca fascicularis, UniProt A0A2R3XZA6); assay: Luciferase reporter assay, cynomolgus monkey STING overexpressed in HEK293T cells; type: cell-based; settings: cynomolgus monkey STING overexpressed in HEK293T cells; read-out: Cynomolgus monkey STING activity (EC50 range)
In short: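 HEK293T cells overexpressing cynomolgus STING with a secreted luciferase reporter were stimulated with compound for 20 hr. Supernatant reporter activity was then measured by Quanti-Luc luminescence, and EC50 values were derived.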

[2] = system: IRF pathway; assay: Reporter gene expression assay in THP1-Dual cells, IRF axis (secreted Lucia luciferase); type: cell-based, human; settings: 20 hr stimulation, EC50 range class, read-out: THP-IRF activity
Procedure: (§1) THP1-Dual™ cells (Invivogen) were derived from the human THP-1 monocyte cell line by stable integration of two inducible reporter constructs. As a result, THP1-Dual™ cells allow the simultaneous study of the NF-κB pathway, by monitoring the activity of secreted SEAP, and the IRF pathway, by assessing the activity of a secreted luciferase (Lucia). 5×10^5 THP1-Dual™ cells were seeded in 384-well plates in growth medium and stimulated with novel compounds. After 20 hr of stimulation supernatants were removed and reporter proteins were readily measured in the cell culture supernatant using QUANTI-Blue™ (Invivogen), a SEAP detection reagent, and QUANTI-Luc™ (Invivogen), a luciferase detection reagent on a Spectramax i3X luminometer.
(§2) EC50 value ranges for exemplary compounds tested in the above assay are given.

[3] = target: hSTING(R232) (Homo sapiens, UniProt Q86WV6, H232R); assay: Luciferase reporter assay in HEK293T-hSTING-Luciferase cells, R232 (wild type) human STING; type: cell-based; settings: 20 hr stimulation, read-out: R232 human activity (EC50 range)
In short: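 After 20 hr compound stimulation of 5×10^5 cells, secreted luciferase in the supernatant was measured by luminescence; values are fold-induction over baseline and EC50. The line is a clonal HEK293T stably carrying a STING plasmid (pUNO-1) and a luciferase reporter under five tandem ISREs fused to an ISG54 promoter.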

[4] = target: hSTING(HAQ) (Homo sapiens, UniProt Q86WV6, G230A/H232R/R293Q/R71H); assay: Luciferase reporter assay in HEK293T-hSTING-Luciferase cells, HAQ polymorph; type: cell-based; settings: HAQ polymorph of human STING, EC50 range class
Excerpt: (§3) Stable Cell Line Generation • a) Stable STING expressing cells—Stable HEK293T STING-expressing cell lines were generated using plasmids purchased from Invivogen, CA, USA, that contain STING cDNA cloned into the pUNO-1 vector under hEF1-HTLV promoter and containing the Blasticidin selection cassette. The plasmids hSTING(R232), hSTING(H232), hSTING(HAQ) were directly procured from Invivogen while hSTING (AQ) and hSTING (Q) were derived from hSTING(HAQ) and hSTING (R232) plasmids respectively by using a PCR based site directed mutagenesis method. These vectors were individually transfected into HEK293T cells using Lipofectamine (Invitrogen) and transfected cells were selected under Blasticidin selection. These transfected cells were further subjected to clonal selection using the limiting dilution method to obtain clonally pure populations of HEK cells transfected with each of the above mentioned human STING variants. Only those clones were selected in which ligand independent activation of STING was minimal. • b) Stable Luciferase reporter gene expressing cells—Stable HEK293T Luciferase reporter gene expressing cell lines were generated using pCDNA4 plasmids under an IRF-inducible promoter. This promoter is comprised of five tandem interferon-stimulated response elements (ISRE) fused to an ISG54 minimal promoter. This vector was transfected into HEK293T cells using Lipofectamine (Invitrogen) and transfected cells were selected under Zeocin selection. These transfected cells were further subjected to clonal selection using the limiting dilution method to obtain clonally pure populations of HEK cells transfected the Luciferase reporter construct. Only those clones were selected in which ligand independent induction of luciferase was minimal.
(§4) 5×10^5 clonally selected HEK293T-hSTING-Luciferase cells were seeded in 384-well plates in growth medium and stimulated with novel compounds. After 20 hr of stimulation supernatant were removed and secretary reporter gene activity were measured using the Quanti-Luc detection system (Invivogen) on a Spectramax i3X luminometer.
(§5) In the tables below, EC50 value ranges for exemplary compounds are given.
(§6) Single nucleotide polymorphisms of human STING have been described, which can affect the functional potency of compounds that modulate the activity of the STING protein (see Yi et. al., PLoS One, October 2013, 8(10), e77846). The 5 major polymorphisms of human STING are shown in FIG. 1, with their prevalence in human populations indicated.
(§7) The tables below show the potency of selected compounds of the invention against the most common polymorphisms.

[5] = target: hSTING(H232) (Homo sapiens, UniProt Q86WV6); assay: Luciferase reporter assay in HEK293T-hSTING-Luciferase cells, H232/REF polymorph; type: cell-based; settings: H232/REF polymorph of human STING, EC50 range class
Excerpt: as §3, §4, §5, §6, §7

[6] = system: NF-κB pathway; assay: Reporter gene expression assay in THP1-Dual cells, NFkB axis (secreted SEAP); type: cell-based, human; settings: 20 hr stimulation, EC50 range class, read-out: THP-NFκB activity
Procedure: as §1, §2

Chain of cynomolgus monkey STING protein (A0A2R3XZA6 entry or part of it): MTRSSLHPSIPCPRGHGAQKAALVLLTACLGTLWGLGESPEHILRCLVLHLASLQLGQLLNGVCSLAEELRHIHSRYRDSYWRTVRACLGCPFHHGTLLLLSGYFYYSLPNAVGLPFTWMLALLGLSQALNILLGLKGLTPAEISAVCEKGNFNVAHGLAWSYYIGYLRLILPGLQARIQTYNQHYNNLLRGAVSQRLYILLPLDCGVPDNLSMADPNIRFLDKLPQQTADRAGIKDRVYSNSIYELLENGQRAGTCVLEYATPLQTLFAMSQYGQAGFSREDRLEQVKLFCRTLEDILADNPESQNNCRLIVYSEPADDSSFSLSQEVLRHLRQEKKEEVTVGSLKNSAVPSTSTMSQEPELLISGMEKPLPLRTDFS
Chain of hSTING(H232) (Q86WV6 whole entry): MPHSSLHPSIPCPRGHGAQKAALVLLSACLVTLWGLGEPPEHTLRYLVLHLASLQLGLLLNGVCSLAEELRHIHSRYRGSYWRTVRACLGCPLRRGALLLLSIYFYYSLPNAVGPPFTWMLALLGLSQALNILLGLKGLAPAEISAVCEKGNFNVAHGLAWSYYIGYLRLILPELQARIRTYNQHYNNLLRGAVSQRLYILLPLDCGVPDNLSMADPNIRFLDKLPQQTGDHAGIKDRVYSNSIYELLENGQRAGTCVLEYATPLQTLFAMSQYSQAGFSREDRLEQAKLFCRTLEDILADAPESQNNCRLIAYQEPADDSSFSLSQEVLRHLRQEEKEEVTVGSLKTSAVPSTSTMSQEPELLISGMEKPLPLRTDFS
Chain of hSTING(HAQ) (Q86WV6 whole entry R71H/G230A/H232R/R293Q): as the sequence (Q86WV6 whole entry) above, with R71H, G230A, H232R, R293Q counted along it
Chain of hSTING(R232) (Q86WV6 whole entry H232R, the tested form may be a part): as the sequence (Q86WV6 whole entry) above, with H232R counted along it

Row | Structure (SMILES) | EC50 [1] | EC50 ([2]; Homo sapiens) | EC50 [3] | EC50 [4] | EC50 [5] | EC50 ([6]; Homo sapiens) | EC50 [2] | EC50 [6]
1 | C[C@H]1c2ccc(C(=O)NCc3c(F)cc(F)cc3F)cc2N(Cc2c(F)cc(O)cc2F)C(=O)N1C [Example 78, (S)-1-(2,6-difluoro-4-hydroxybenzyl)-3,4-dimethyl-2-oxo-N-(2,4,6-trifluorobenzyl)-1,2,3,4-tetrahydroquinazoline-7-carboxamide] | < 1 µM | < 1 µM | < 1 µM | < 1 µM | < 1 µM | < 1 µM | – | –
2 | C[C@H]1c2ccc(C(=O)NCc3c(F)cc(F)cc3F)cc2N(Cc2c(F)cc(OCCO)cc2F)C(=O)N1C [Example 80, (S)-1-(2,6-Difluoro-4-(2-hydroxyethoxy)benzyl)-3,4-dimethyl-2-oxo-N-(2,4,6-trifluorobenzyl)-1,2,3,4-tetrahydroquinazoline-7-carboxamide] | < 1 µM | 1 to 10 µM | < 1 µM | < 1 µM | < 1 µM | 1 to 10 µM | – | –
3 | C[C@H]1c2ccc(C(=O)NCc3c(F)cc(F)cc3F)cc2N(Cc2c(F)cc(OCCCO)cc2F)C(=O)N1C [Example 81, (S)-1-(2,6-difluoro-4-(3-hydroxypropoxy)benzyl)-3,4-dimethyl-2-oxo-N-(2,4,6-trifluorobenzyl)-1,2,3,4-tetrahydroquinazoline-7-carboxamide] | < 1 µM | < 1 µM | < 1 µM | < 1 µM | < 1 µM | < 1 µM | – | –
4 | CC(=O)Nc1ccc(COC(=O)Oc2cc(F)c(CN3C(=O)N(C)[C@@H](C)c4ccc(C(=O)NCc5c(F)cc(F)cc5F)cc43)c(F)c2)cc1 [Example 85, (S)-4-Acetamidobenzyl-(4-((3,4-dimethyl-2-oxo-7-((2,4,6-trifluorobenzyl)carbamoyl)-3,4-dihydroquinazolin-1(2H)-yl)methyl)-3,5-difluorophenyl) carbonate] | < 1 µM | < 1 µM | < 1 µM | < 1 µM | < 1 µM | < 1 µM | – | –
5 | C[C@H]1c2ccc(C(=O)NCc3c(F)cc(F)cc3F)cc2N(Cc2c(F)ccc(O)c2Cl)C(=O)N1C [Example 87, (S)-1-(2-Chloro-6-fluoro-3-hydroxybenzyl)-3,4-dimethyl-2-oxo-N-(2,4,6-trifluorobenzyl)-1,2,3,4-tetrahydroquinazoline-7-carboxamide] | < 1 µM | < 1 µM | < 1 µM | < 1 µM | < 1 µM | < 1 µM | – | –
6 | COc1ccc(F)c(CN2C(=O)N(C)[C@@H](C)c3ccc(C(=O)NCc4c(F)cc(F)cc4F)cc32)c1Cl [Example 88, (S)-1-(2-Chloro-6-fluoro-3-methoxybenzyl)-3,4-dimethyl-2-oxo-N-(2,4,6-trifluorobenzyl)-1,2,3,4-tetrahydroquinazoline-7-carboxamide] | < 1 µM | < 1 µM | < 1 µM | < 1 µM | < 1 µM | < 1 µM | – | –
7 | C[C@H]1c2ccc(C(=O)NCc3c(F)cc(F)cc3F)cc2N(Cc2c(F)ccc(OCCO)c2Cl)C(=O)N1C [Example 137, (S)-1-(2-Chloro-6-fluoro-3-(2-hydroxyethoxy)benzyl)-3,4-dimethyl-2-oxo-N-(2,4,6-trifluorobenzyl)-1,2,3,4-tetrahydroquinazoline-7-carboxamide] | < 1 µM | < 1 µM | < 1 µM | < 1 µM | < 1 µM | < 1 µM | – | –
8 | C[C@H]1c2ccc(C(=O)NCc3c(F)cc(F)cc3F)cc2N(Cc2c(F)ccc(OCCCO)c2Cl)C(=O)N1C [Example 138, (S)-1-(2-Chloro-6-fluoro-3-(3-hydroxypropoxy)benzyl)-3,4-dimethyl-2-oxo-N-(2,4,6-trifluorobenzyl)-1,2,3,4-tetrahydroquinazoline-7-carboxamide] | < 1 µM | < 1 µM | < 1 µM | < 1 µM | < 1 µM | < 1 µM | – | –
9 | C[C@H]1c2ccc(C(=O)NCc3c(F)cc(F)cc3F)cc2N(Cc2c(F)ccc(C(N)=O)c2F)C(=O)N1C [Example 141, (S)-1-(3-Carbamoyl-2,6-difluorobenzyl)-3,4-dimethyl-2-oxo-N-(2,4,6-trifluorobenzyl)-1,2,3,4-tetrahydroquinazoline-7-carboxamide] | < 1 µM | < 1 µM | < 1 µM | < 1 µM | < 1 µM | < 1 µM | – | –
10 | C[C@H]1c2ccc(C(=O)NCc3c(F)cc(F)cc3F)cc2N(Cc2c(F)cc(OC[C@@H](O)CO)cc2F)C(=O)N1C [Example 147, (S)-1-(4-((S)-2,3-Dihydroxypropoxy)-2,6-difluorobenzyl)-3,4-dimethyl-2-oxo-N-(2,4,6-trifluorobenzyl)-1,2,3,4-tetrahydroquinazoline-7-carboxamide] | < 1 µM | < 1 µM | < 1 µM | < 1 µM | < 1 µM | < 1 µM | – | –
11 | COc1cccc(F)c1CN1C(=O)N(C)C(C)c2ccc(C(=O)NCc3c(F)cc(F)cc3F)cc21 (stereo not drawn) [Example 154, 1-(2-fluoro-6-methoxybenzyl)-3,4-dimethyl-2-oxo-N-(2,4,6-trifluorobenzyl)-1,2,3,4-tetrahydroquinazoline-7-carboxamide] | < 1 µM | – | < 1 µM | < 1 µM | < 1 µM | – | < 1 µM | < 1 µM
12 | Cc1cccc(F)c1CN1C(=O)N(C)C(C)c2ccc(C(=O)NCc3c(F)cc(F)cc3F)cc21 (stereo not drawn) [Example 162, 1-(2-fluoro-6-methylbenzyl)-3,4-dimethyl-2-oxo-N-(2,4,6-trifluorobenzyl)-1,2,3,4-tetrahydroquinazoline-7-carboxamide] | < 1 µM | < 1 µM | < 1 µM | < 1 µM | < 1 µM | < 1 µM | – | –
13 | Cc1ccc(Cl)c(CN2C(=O)N(C)[C@@H](C)c3ccc(C(=O)NCc4c(F)cc(F)cc4F)cc32)c1F [Example 169, (S)-1-(6-chloro-2-fluoro-3-methylbenzyl)-3,4-dimethyl-2-oxo-N-(2,4,6-trifluorobenzyl)-1,2,3,4-tetrahydroquinazoline-7-carboxamide] | < 1 µM | < 1 µM | < 1 µM | < 1 µM | < 1 µM | < 1 µM | – | –
14 | C[C@H]1c2ccc(C(=O)NCc3c(F)cc(F)cc3F)cc2N(Cc2c(Cl)ccc(F)c2F)C(=O)N1C [Example 177, (S)-1-(6-chloro-2,3-difluorobenzyl)-3,4-dimethyl-2-oxo-N-(2,4,6-trifluorobenzyl)-1,2,3,4-tetrahydroquinazoline-7-carboxamide] | < 1 µM | < 1 µM | < 1 µM | < 1 µM | < 1 µM | < 1 µM | – | –
